Assays:
[1] = biological target: T1, Tyrosinase (Agaricus bisporus, UniProt O42713)
T1 sequence (O42713 whole entry): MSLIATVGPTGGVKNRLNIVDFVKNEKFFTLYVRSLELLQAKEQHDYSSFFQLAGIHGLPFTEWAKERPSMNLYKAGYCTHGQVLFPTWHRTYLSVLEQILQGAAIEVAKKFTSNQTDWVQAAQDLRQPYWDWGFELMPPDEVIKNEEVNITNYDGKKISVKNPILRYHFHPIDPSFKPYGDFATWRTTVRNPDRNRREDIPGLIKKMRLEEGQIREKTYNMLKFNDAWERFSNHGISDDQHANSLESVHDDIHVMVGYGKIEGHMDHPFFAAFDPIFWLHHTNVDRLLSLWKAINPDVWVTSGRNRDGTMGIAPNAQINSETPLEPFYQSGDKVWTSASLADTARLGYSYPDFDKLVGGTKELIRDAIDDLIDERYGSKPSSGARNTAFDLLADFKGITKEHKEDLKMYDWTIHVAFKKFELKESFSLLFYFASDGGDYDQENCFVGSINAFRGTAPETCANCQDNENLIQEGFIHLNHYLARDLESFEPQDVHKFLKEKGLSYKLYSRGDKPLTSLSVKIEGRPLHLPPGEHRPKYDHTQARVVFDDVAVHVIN
Description: Inhibition of mushroom tyrosinase after 25 mins by spectrophotometry

[2] = system: Radical scavenging activity
Description: Antioxidant activity assessed as DPPH radical scavenging activity by spectrophotometry

IC50 [1] [µM] | EC50 [2] [µM] | SMILES
> 350 | > 250 | COc1ccc(/C=C/C(=O)O)cc1 [4-METHOXYCINNAMIC ACID]
> 350 | 38.3 | O=C(O)CCC(=O)NCCc1c[nH]c2ccc(O)cc12 [BUFOBUTANOIC ACID]
121 | > 250 | O=C(O)/C=C/c1ccc(O)cc1 [COUMARIC ACID]
> 350 | > 250 | COc1cc(/C=C/C(=O)O)ccc1O [FERULATE]
322 | 28.1 | COc1ccc(/C=C/C(=O)NCCc2c[nH]c3ccc(O)cc23)cc1OC [N-3,4-DIMETHOXY CINNAMOYL SEROTONIN]
278 | 19.4 | O=C(/C=C/c1ccc(O)c(O)c1)NCCc1c[nH]c2ccc(O)cc12 [N-CAFFEOYLSEROTONIN]
40.4 | 22.2 | O=C(/C=C/c1ccccc1)NCCc1c[nH]c2ccc(O)cc12 [N-CINNAMOYL SEROTONIN]
8 | 22.8 | COc1cc(/C=C/C(=O)NCCc2c[nH]c3ccc(O)cc23)ccc1O [N-FERULOYL SEROTONIN]
5.4 | 35.1 | COc1ccc(/C=C/C(=O)NCCc2c[nH]c3ccc(O)cc23)cc1O [N-ISOFERULOYL SEROTONIN]
8.8 | 24.7 | O=C(/C=C/c1ccc(O)cc1)NCCc1c[nH]c2ccc(O)cc12 [N-P-COUMAROYL SEROTONIN]
23.8 | 34.2 | COc1ccc(/C=C/C(=O)NCCc2c[nH]c3ccc(O)cc23)cc1 [N-P-METHOXY CINNAMOYL SEROTONIN]
> 350 | 30.7 | COc1cc(/C=C/C(=O)NCCc2c[nH]c3ccc(O)cc23)cc(OC)c1O [N-SINAPOYL SEROTONIN]
> 351 | > 250 | COc1cc(/C=C/C(=O)O)cc(OC)c1O [SINAPINATE]

SMILES | IC50 [1] [µM] | EC50 [2] [µM]
NCCc1c[nH]c2ccc(O)cc12 [SEROTONIN] | > 350 | > 250
